Measured values published in publication PMC8284666, “Biochemical characterization of protease activity of Nsp3 from SARS-CoV-2 and its inhibition by nanobodies” (PLoS ONE, 2021).
Read-outs that look alike come from different tables or passages of the source.

Columns and labels:
[1] = target: T1, Nsp3^core (Severe acute respiratory syndrome coronavirus 2, UniProt P0DTC1); experiment: biochemical
[2] = tested on: panel of 42 human DUBs and the viral ovarian tumor (vOTU); format: biochemical; conditions: tested at 10 and 1 μM; result in words
[3] = target: PLpro from SARS-CoV-2 (Severe acute respiratory syndrome coronavirus 2, UniProt P0DTC1); experiment: biochemical; conditions: for inhibition at 10 µM: read-out: percentage inhibition in the HTS
[4] = target: T1, Nsp3^core; format: biochemical
[5] = tested on: SARS-CoV-2 PLpro; conditions: cited from earlier work
[6] = tested on: PLpro^CoV-1; conditions: read-out: IC50 against PLpro^CoV-1; cited from earlier work
[7] = target: SARS-CoV-2 Nsp3 residues 743-1072 (PL-pro), purified, tags removed (SARS-CoV-2, Wuhan-Hu-1 (MN908947.3), UniProt P0DTD1); experiment: ITC; conditions: both partners purified
[8] = screened in duplicate at 10 μM, hit criterion

For `CCN(CC)C(=S)SSC(=S)N(CC)CC` [Disulfiram], the IC50 [1] was 660 nM, the “selectivity / off-target inhibition in the DUB panel” value (“selectivity / off-target inhibition” below) [2] was “inhibited–at different extents–several other human DUBs” and the IC50 [3] was 690 nM. The inhibition at 10 µM [3, 8] was > 50%.

In the case of `CC(Cc1ccc(O)c(O)c1)C(C)Cc1ccc(O)c(O)c1` (stereo not shown) [Nordihydroguaiaretic acid], the IC50 [1] is reported as 1620 nM, the IC50 [3] is reported as 1060 nM and the inhibition at 10 µM [3, 8] is reported as > 50%.

Molecule `Nc1nc2nc[nH]c2c(=S)[nH]1` [Thioguanine] has an IC50 [3] of 4540 nM.

For `O=c1sn(-c2cccc3ccccc23)c(=O)n1Cc1ccccc1` [Tideglusib], the IC50 [1] was 1480 nM, the “selectivity / off-target inhibition” value [2] was “inhibited–at different extents–several other human DUBs” and the IC50 [3] was 210 nM. The inhibition at 10 µM [3] was > 50%.

In the case of Auranofin, the IC50 [1] is reported as ~1000 nM, the “selectivity / off-target inhibition” value [2] is reported as “inhibited–at different extents–several other human DUBs” and the IC50 ([3]; read-out: IC50 against PLpro) is reported as ~1000 nM.

In the case of GRL-0617, the “inhibition of viral polypeptide (Nsp1-2 FL) cleavage by Nsp3” value [4] is given as “able to inhibit cleavage of the viral polypeptide”, the IC50 [5] is given as ~2000 nM and the IC50 [6] is given as 600 nM.

B1: NbSL18, recombinant, purified from bacteria (VHH)
VHH: QVQLQESGGGLVQAGGSLRLSCAASGSIFLPGFMGWYRQAPGKERELVASITPGTTTNYADSVKGRFTISRDNAKNTVYLQMNSLKPEDTAVYYCAAYVFVYRNYWGQGTQVTVSS
For B1, the Kd [7] was ~500 nM.
